Results published in patent publication US20250388553A1 (Incyte Corporation, priority 2018, published 2025).
Structures can show the parent of a compound that is named as a salt. Where two headings read alike, the source gives them in different places. Each block holds one compound with its values, some of them ahead of it.

Assays:
[1] = tested on: Phosphorylated Ribosomal Protein S6 (RPS6) in THP-1 cells; experiment: THP-1 RPS6 ELISA assay; type: cell-based, Human; conditions: THP-1 cells, 10 nM MCP-1, phospho-RPS6 ELISA, read-out: PI3Kγ_THP1_RPS6_ELISA IC50
Description: Example A. THP-1 RPS6 ELISA Assay
To measure the Phosphorylated Ribosomal Protein S6 (RPS6) in cell lysates, THP-1 cells (Human Acute Monocytic Leukemia) are purchased from ATCC (Manassas, VA) and maintained in RPMI with 10% FBS (Gibco/Life Technologies, Carlsbad, CA). For the assay, THP-1 cells are serum starved overnight in RPMI, then plated in RPMI (2×10^5 cells/well in […]) into 96-well flat-bottom tissue culture treated plates (Corning, Corning, NY), in the presence or absence of a concentration range of test compounds. Covered plates are incubated for 2 hours at 37° C., 5% CO2 then treated with or without 10 nM MCP-1(MYBioSource, San Diego, CA) for 15 minutes at 37° C., 5% CO2. Plates are centrifuged at 1600 RPM and supernatants are removed. Cells are lysed in Lysis Buffer (Cell Signaling, Danvers, MA) with Protease Inhibitor (Calbiochem/EMD, Germany), PMSF (Sigma, St Louis MO), HALTS (Thermo Fisher, Rockford, IL) for 30 min on wet ice. Cell lysates are frozen at −80° C. before testing. The lysates are tested in the Human/Mouse/Rat Phospho-RPS6 ELISA (R&D Systems, Inc. Minn, MN). The plate is measured using a microplate reader (SpectraMax M5—Molecular Devices, LLC Sunnyvale, CA) set to 450 nm with a wavelength correction of 540. IC50 determination is performed by fitting the curve of inhibitor percent inhibition versus the log of the inhibitor concentration using the GraphPad Prism 5.0 software.
The compounds of the Examples were tested in the assays described in Examples A, B and C and found to have the IC50s are shown in Tables A1, A2, A3 and A4.

[2] = target: PI3Kδ (p1106/p85a) Recombinant Human Protein (Homo sapiens (Human), UniProt O00329); experiment: PI3Kδ scintillation proximity assay; type: biochemical
[3] = target: PI3Kγ (p110γ) Recombinant Human Protein (Homo sapiens (Human), UniProt P48736); experiment: PI3K-γ scintillation proximity assay; type: biochemical
[4] = Table A4, scintillation proximity assay, recombinant human PI3Kδ
[5] = Table A1, scintillation proximity assay, recombinant human p110γ
[6] = Table A1, scintillation proximity assay, recombinant human PI3Kδ
[7] = Table A3, scintillation proximity assay, recombinant human p110γ
[8] = Table A3, scintillation proximity assay, recombinant human PI3Kδ
[9] = Table A4, scintillation proximity assay, recombinant human p110γ

Sequence of PI3Kγ (p110γ) Recombinant Human Protein (P48736 whole entry): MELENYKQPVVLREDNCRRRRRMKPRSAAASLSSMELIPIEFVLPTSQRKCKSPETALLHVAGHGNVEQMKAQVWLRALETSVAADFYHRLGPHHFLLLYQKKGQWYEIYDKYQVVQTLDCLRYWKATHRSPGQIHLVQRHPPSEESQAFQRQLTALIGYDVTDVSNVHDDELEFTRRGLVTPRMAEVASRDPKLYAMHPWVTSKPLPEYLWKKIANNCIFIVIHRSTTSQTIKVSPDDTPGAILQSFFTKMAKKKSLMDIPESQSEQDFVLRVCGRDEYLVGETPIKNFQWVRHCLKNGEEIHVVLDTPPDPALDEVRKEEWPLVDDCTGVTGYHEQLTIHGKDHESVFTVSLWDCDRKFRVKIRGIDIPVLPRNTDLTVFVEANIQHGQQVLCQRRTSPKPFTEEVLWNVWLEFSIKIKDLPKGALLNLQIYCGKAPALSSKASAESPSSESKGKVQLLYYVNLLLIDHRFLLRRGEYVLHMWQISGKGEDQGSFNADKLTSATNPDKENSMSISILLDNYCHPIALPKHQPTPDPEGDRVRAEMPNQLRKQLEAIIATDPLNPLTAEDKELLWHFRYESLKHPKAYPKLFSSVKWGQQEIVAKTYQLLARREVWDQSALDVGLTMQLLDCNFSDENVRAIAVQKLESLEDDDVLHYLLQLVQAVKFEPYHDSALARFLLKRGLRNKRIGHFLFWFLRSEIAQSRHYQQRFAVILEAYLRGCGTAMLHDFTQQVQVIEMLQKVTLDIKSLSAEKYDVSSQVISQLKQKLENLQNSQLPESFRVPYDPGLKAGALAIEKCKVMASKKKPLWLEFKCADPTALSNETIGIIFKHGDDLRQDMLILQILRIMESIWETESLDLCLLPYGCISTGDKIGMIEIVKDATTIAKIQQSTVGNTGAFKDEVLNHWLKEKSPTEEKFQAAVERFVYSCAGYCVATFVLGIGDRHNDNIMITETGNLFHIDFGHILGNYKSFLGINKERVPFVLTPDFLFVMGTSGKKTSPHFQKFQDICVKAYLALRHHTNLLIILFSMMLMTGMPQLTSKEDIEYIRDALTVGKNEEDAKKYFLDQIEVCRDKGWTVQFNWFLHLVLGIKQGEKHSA
Sequence of PI3Kδ (p1106/p85a) Recombinant Human Protein (O00329 whole entry): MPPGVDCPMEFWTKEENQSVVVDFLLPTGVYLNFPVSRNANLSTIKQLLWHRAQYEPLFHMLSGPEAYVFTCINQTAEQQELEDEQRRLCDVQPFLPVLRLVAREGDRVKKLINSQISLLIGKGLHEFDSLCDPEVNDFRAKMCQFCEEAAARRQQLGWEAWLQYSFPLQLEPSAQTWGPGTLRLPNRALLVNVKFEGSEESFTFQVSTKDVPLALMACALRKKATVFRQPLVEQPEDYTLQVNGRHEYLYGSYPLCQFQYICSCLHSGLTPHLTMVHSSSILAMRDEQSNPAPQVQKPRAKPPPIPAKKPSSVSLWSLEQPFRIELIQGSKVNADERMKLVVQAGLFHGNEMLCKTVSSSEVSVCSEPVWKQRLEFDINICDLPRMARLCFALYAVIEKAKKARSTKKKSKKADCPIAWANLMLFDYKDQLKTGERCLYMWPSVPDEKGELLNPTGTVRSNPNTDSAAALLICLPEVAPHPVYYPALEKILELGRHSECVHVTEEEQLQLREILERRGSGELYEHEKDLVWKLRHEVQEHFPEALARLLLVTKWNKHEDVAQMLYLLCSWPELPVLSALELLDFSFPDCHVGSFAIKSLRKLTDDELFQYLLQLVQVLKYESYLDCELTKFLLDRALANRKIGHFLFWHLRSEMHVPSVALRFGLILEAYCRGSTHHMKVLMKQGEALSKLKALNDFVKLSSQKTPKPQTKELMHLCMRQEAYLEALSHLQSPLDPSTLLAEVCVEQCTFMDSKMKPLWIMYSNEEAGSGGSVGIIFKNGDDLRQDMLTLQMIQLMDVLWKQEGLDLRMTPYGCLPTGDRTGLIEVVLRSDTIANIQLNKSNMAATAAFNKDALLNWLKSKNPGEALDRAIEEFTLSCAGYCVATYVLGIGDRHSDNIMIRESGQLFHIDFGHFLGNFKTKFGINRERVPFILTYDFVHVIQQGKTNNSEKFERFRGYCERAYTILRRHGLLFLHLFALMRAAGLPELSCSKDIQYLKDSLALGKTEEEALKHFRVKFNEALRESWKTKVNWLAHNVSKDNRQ
Sequence of PI3Kδ (p1106/p85a) Recombinant Human Protein (P27986 whole entry partner): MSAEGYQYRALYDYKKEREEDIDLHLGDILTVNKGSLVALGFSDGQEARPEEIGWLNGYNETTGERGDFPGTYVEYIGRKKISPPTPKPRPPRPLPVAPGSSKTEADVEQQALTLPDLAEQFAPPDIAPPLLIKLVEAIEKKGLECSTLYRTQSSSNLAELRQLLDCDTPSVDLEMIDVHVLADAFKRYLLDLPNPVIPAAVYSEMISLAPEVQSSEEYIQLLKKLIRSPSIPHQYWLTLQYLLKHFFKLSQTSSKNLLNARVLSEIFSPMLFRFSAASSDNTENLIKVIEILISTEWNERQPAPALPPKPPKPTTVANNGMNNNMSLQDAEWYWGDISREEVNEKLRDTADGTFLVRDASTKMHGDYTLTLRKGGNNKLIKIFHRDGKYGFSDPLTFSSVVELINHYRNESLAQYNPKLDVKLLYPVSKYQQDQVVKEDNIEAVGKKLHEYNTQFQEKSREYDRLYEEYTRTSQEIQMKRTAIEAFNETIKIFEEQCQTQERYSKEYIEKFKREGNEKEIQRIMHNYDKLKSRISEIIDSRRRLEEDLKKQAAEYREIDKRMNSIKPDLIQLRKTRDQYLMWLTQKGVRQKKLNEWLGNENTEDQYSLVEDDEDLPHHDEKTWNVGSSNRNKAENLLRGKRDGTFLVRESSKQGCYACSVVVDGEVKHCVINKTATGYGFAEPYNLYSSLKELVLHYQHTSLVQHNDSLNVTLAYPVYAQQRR

- IC50 ([1]; Homo sapiens, Table A4): 500 to 1000 nM
Compound: Cc1ccc(C(O)(C(N)=O)C(F)(F)F)cc1-c1cnc(N)c(C2CN(S(=O)(=O)c3cnn(C)c3)C2)n1 (single isomer, unassigned) [Example 107, 2-(3-(5-Amino-6-(1-((1-methyl-1H-pyrazol-4-yl)sulfonyl)azetidin-3-yl)pyrazin-2-yl)-4-methylphenyl)-3,3,3-trifluoro-2-hydroxypropanamide, trifluoroacetate Salt]

- IC50 [2, 4]: 100 to 500 nM
- IC50 ([1]; Table A4): > 1000 nM
Compound: CCOC(=O)C1CC(c2nc(-c3cc(C(O)(C(N)=O)C(F)(F)F)ccc3C)cnc2N)C1 (single isomer, unassigned) [Example 109, Ethyl 3-(3-amino-6-(5-(3-amino-1,1,1-trifluoro-2-hydroxy-3-oxopropan-2-yl)-2-methylphenyl)pyrazin-2-yl)cyclobutane-1-carboxylate]

- IC50 [3, 5]: < 100 nM
- IC50 [2, 6]: < 100 nM
- IC50 ([1]; Table A1): < 100 nM
Compound: Cc1ccc(C(O)(C(N)=O)C(F)(F)F)cc1-c1cnc(N)c(C(=O)N[C@H]2CC[C@H](O)CC2)n1 (stereo partly drawn) [Example 3, 3-amino-6-(5-(3-amino-1,1,1-trifluoro-2-hydroxy-3-oxopropan-2-yl)-2-methylphenyl)-N-((1r,4r)-4-hydroxycyclohexyl)pyrazine-2-carboxamide trifluoroacetate]

- IC50 [3, 5]: < 100 nM
- IC50 [2, 6]: < 100 nM
- IC50 ([1]; Table A1): < 100 nM
Compound: Cc1ccc(C(O)(C(N)=O)C(F)(F)F)cc1-c1cnc(N)c(C(=O)N[C@H]2CC[C@](C)(O)CC2)n1 (stereo partly drawn) [Example 17, 3-amino-6-(5-(3-amino-1,1,1-trifluoro-2-hydroxy-3-oxopropan-2-yl)-2-methylphenyl)-N-((1r,4r)-4-hydroxy-4-methylcyclohexyl)pyrazine-2-carboxamide trifluoroacetate]

- IC50 ([1]; Homo sapiens, Table A3): < 100 nM
Compound: Cc1ncc(-c2nc(-c3cc(C(O)(C(N)=O)C(F)(F)F)ccc3C)cnc2N)s1 (stereo not drawn) [Example 72, 2-(3-(5-amino-6-(2-methylthiazol-5-yl)pyrazin-2-yl)-4-methylphenyl)-3,3,3-trifluoro-2-hydroxypropanamide trifluoroacetate]

- IC50 [3, 7]: < 100 nM
- IC50 [2, 8]: < 100 nM
Compound: Cc1ccc(C(O)(C(N)=O)C(F)F)cc1-c1cnc(N)c(-c2cnn(C)n2)n1 (stereo not drawn) [Example 101, 2-(3-(5-amino-6-(2-methyl-2H-1,2,3-triazol-4-yl)pyrazin-2-yl)-4-methylphenyl)-3,3-difluoro-2-hydroxypropanamide]

- IC50 [3, 7]: < 100 nM
- IC50 [2, 8]: < 100 nM
Compound: Cc1ccc(C(O)(CNC=O)C(F)(F)F)cc1-c1cnc(N)c(-c2cnc(C3CC3)s2)n1 (stereo not drawn) [Example 102, N-(2-(3-(5-amino-6-(2-cyclopropylthiazol-5-yl)pyrazin-2-yl)-4-methylphenyl)-3,3,3-trifluoro-2-hydroxypropyl)formamide trifluoroacetate]

- IC50 [3, 7]: < 100 nM
- IC50 [2, 8]: < 100 nM
Compound: CC(=O)NCC(O)(c1ccc(C)c(-c2cnc(N)c(-c3cnn(CC(F)(F)F)c3)n2)c1)C(F)(F)F (stereo not drawn) [Example 104, N-(2-(3-(5-amino-6-(1-(2,2,2-trifluoroethyl)-1H-pyrazol-4-yl)pyrazin-2-yl)-4-methylphenyl)-3,3,3-trifluoro-2-hydroxypropyl)acetamide trifluoroacetate]

- IC50 [3, 7]: < 100 nM
- IC50 [2, 8]: < 100 nM
Compound: CC(=O)NCC(O)(c1ccc(C)c(-c2cnc(N)c(-c3cn[nH]c3)n2)c1)C(F)(F)F (stereo not drawn) [Example 105, N-(2-(3-(5-amino-6-(1H-pyrazol-4-yl)pyrazin-2-yl)-4-methylphenyl)-3,3,3-trifluoro-2-hydroxypropyl)acetamide trifluoroacetate]

- IC50 [3, 7]: < 100 nM
- IC50 [2, 8]: < 100 nM
Compound: Cc1ccc(C(O)(C(N)=O)C(F)(F)F)cc1-c1cnc(N)c(C(=O)Nc2ccnn2C)n1 (stereo not drawn) [Example 106, 3-amino-6-(5-(3-amino-1,1,1-trifluoro-2-hydroxy-3-oxopropan-2-yl)-2-methylphenyl)-N-(1-methyl-1H-pyrazol-5-yl)pyrazine-2-carboxamide trifluoroacetate]

- IC50 [3, 9]: < 100 nM
- IC50 [2, 4]: < 100 nM
Compound: CC(=O)N1CCN(c2nc(-c3cc(C(O)(C(N)=O)C(F)(F)F)ccc3C)cnc2N)CC1 (stereo not drawn) [Example 114, 2-(3-(6-(4-acetylpiperazin-1-yl)-5-aminopyrazin-2-yl)-4-methylphenyl)-3,3,3-trifluoro-2-hydroxypropanamide trifluoroacetate]

- IC50 [3, 9]: < 100 nM
- IC50 [2, 4]: < 100 nM
Compound: Cc1ccc([C@@](O)(C(N)=O)C(F)(F)F)cc1-c1cnc(N)c(N2CCN(C(=O)C3CC3)CC2)n1 [Example 115, (R)-2-(3-(5-amino-6-(4-(cyclopropanecarbonyl)piperazin-1-yl)pyrazin-2-yl)-4-methylphenyl)-3,3,3-trifluoro-2-hydroxypropanamide trifluoroacetate]

- IC50 [3, 9]: < 100 nM
- IC50 [2, 4]: 100 to 500 nM
Compound: Cc1ccc(C(O)(C(N)=O)C(F)(F)F)cc1-c1cnc(N)c(N2CCN(c3ccccc3)CC2)n1 (stereo not drawn) [Example 116, 2-(3-(5-amino-6-(4-phenylpiperazin-1-yl)pyrazin-2-yl)-4-methylphenyl)-3,3,3-trifluoro-2-hydroxypropanamide trifluoroacetate]

Compound: Cc1ccc(C(O)(C(N)=O)C(F)(F)F)cc1-c1cnc(N)c(N2CCN(c3ccccn3)CC2)n1 (stereo not drawn) [Example 117, 2-(3-(5-amino-6-(4-(pyridin-2-yl)piperazin-1-yl)pyrazin-2-yl)-4-methylphenyl)-3,3,3-trifluoro-2-hydroxypropanamide trifluoroacetate]
- IC50 [3]: < 100 nM
- IC50 [2]: < 100 nM

- IC50 [3, 9]: < 100 nM
- IC50 [2, 4]: 100 to 500 nM
Compound: Cc1ccc(C)c(N2CCN(c3nc(-c4cc(C(O)(C(N)=O)C(F)(F)F)ccc4C)cnc3N)CC2)c1 (stereo not drawn) [Example 119, 2-(3-(5-amino-6-(4-(2,5-dimethylphenyl)piperazin-1-yl)pyrazin-2-yl)-4-methylphenyl)-3,3,3-trifluoro-2-hydroxypropanamide trifluoroacetate]

- IC50 [3, 9]: < 100 nM
- IC50 [2, 4]: < 100 nM
Compound: Cc1ccc(C(O)(C(N)=O)C(F)(F)F)cc1-c1cnc(N)c(N2CCN(c3cncs3)CC2)n1 (stereo not drawn) [Example 120, 2-(3-(5-amino-6-(4-(thiazol-5-yl)piperazin-1-yl)pyrazin-2-yl)-4-methylphenyl)-3,3,3-trifluoro-2-hydroxypropanamide trifluoroacetate]

- IC50 [3, 9]: < 100 nM
- IC50 [2, 4]: 100 to 500 nM
Compound: Cc1ccc(C(O)(C(N)=O)C(F)(F)F)cc1-c1cnc(N)c(N2CCN(c3cccc(C(F)(F)F)c3)CC2)n1 (stereo not drawn) [Example 121, 2-(3-(5-amino-6-(4-(3-(trifluoromethyl)phenyl)piperazin-1-yl)pyrazin-2-yl)-4-methylphenyl)-3,3,3-trifluoro-2-hydroxypropanamide trifluoroacetate]

- IC50 [3, 9]: < 100 nM
- IC50 [2, 4]: < 100 nM
Compound: Cc1ccc(C(O)(C(N)=O)C(F)(F)F)cc1-c1cnc(N)c(N2CCN(c3ccccc3C#N)CC2)n1 (stereo not drawn) [Example 122, 2-(3-(5-amino-6-(4-(2-cyanophcnyl)piperazin-1-yl)pyrazin-2-yl)-4-methylphenyl)-3,3,3-trifluoro-2-hydroxypropanamide trifluoroacetate]

- IC50 [3, 9]: < 100 nM
- IC50 [2, 4]: < 100 nM
Compound: Cc1ccc(C(O)(C(N)=O)C(F)(F)F)cc1-c1cnc(N)c(N2CCN3C(=O)CCC3C2)n1 (stereo not drawn) [Example 126, 2-(3-(5-amino-6-(6-oxohexahydropyrrolo[1,2-a]pyrazin-2(1H)-yl)pyrazin-2-yl)-4-methylphenyl)-3,3,3-trifluoro-2-hydroxypropanamide trifluoroacetate]

Compound: Cc1ccc(C(O)(C(N)=O)C(F)(F)F)cc1-c1cnc(N)c(N2CCN(C(=O)c3ccco3)CC2)n1 (stereo not drawn) [Example 127, 2-(3-(5-amino-6-(4-(furan-2-carbonyl)piperazin-1-yl)pyrazin-2-yl)-4-methylphenyl)-3,3,3-trifluoro-2-hydroxypropanamide trifluoroacetate]
- IC50 [3]: < 100 nM
- IC50 [2]: < 100 nM

- IC50 [3, 9]: < 100 nM
- IC50 [2, 4]: < 100 nM
Compound: Cc1ccc(C(O)(C(N)=O)C(F)(F)F)cc1-c1cnc(N)c(N2CCN(c3nccnc3C#N)CC2)n1 (stereo not drawn) [Example 128, 2-(3-(5-amino-6-(4-(3-cyanopyrazin-2-yl)piperazin-1-yl)pyrazin-2-yl)-4-methylphenyl)-3,3,3-trifluoro-2-hydroxypropanamide trifluoroacetate]
